Test systems include DLD-1 colon; HCT-15 colon; HOP-62 NSCLC; HT29 colon; SN12C renal; SR leukemia; UACC-62 melanoma; A498 renal; RPMI-8226 leukemia; MDA-N.
Common to all, as to test: NCI-60 cell line screen, 48 h

The record followed here is PubChem BioAssay (NCI).

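Results reflect a 48-hour exposure of cells in 96-well plates to compound at five concentrations. Here, GI50 denotes the concentration required for 50% inhibition of growth. TGI marks complete inhibition of growth.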

As to `Cc1nn2c(nc1=O)sc1ccc3ccccc3c12`, the TGI in the assay with DLD-1 colon, in the assay with HCT-15 colon, with HOP-62 NSCLC, in the assay with HT29 colon, in the assay on SN12C renal and in the assay on SR leukemia was > 100 µM in each case. Also, the TGI in the assay with UACC-62 melanoma was > 100 µM.
On to `C(=N\Nc1ccccc1)/c1nc2ccccc2nc1/C=N/Nc1ccccc1`, for which the TGI with A498 renal amounted to 31.1 µM; in the assay with DLD-1 colon, 40.9 µM; with HCT-15 colon, 25.8 µM; in the assay with HOP-62 NSCLC, 34.6 µM; in the assay on HT29 colon it was 23.5 µM; with SN12C renal, 36.4 µM. Besides, the TGI was > 84.7 µM in the assay on SR leukemia and 27.3 µM in the assay with UACC-62 melanoma.
For `N#CCCCCCOCCOCCOCCOCCOCCCCCC#N`, the TGI in the assay with A498 renal, in the assay on DLD-1 colon, in the assay with HCT-15 colon, with HOP-62 NSCLC, in the assay with HT29 colon and in the assay with SN12C renal was > 100 µM in each case. Besides, the TGI with SR leukemia and in the assay with UACC-62 melanoma was > 100 µM each time.
`O=C(NCc1cccnc1)C1COc2cc(-c3cc(=O)c4ccccc4o3)ccc2O1` (stereo not drawn): the TGI with A498 renal was 99.7 µM; in the assay on DLD-1 colon it was > 100 µM; in the assay with HCT-15 colon it was > 100 µM; in the assay on HOP-62 NSCLC, 24.8 µM; with HT29 colon, > 100 µM; with RPMI-8226 leukemia it was > 100 µM. Further, the figures for the TGI with SN12C renal, with SR leukemia and in the assay with UACC-62 melanoma were > 78 µM, > 100 µM and > 100 µM, respectively.
With `COc1ccc(NC(=O)CC/C(CC(=O)c2ccco2)=N/NC(N)=S)cc1`, the TGI in the assay with A498 renal, in the assay on DLD-1 colon, in the assay on HCT-15 colon, in the assay with HOP-62 NSCLC, in the assay on HT29 colon and in the assay with RPMI-8226 leukemia was > 100 µM each time. The TGI in the assay with SN12C renal and with UACC-62 melanoma was > 100 µM throughout.
As for `CC1(Br)CC2OC3(Br)C=CC(C)(O)C2(CC1=O)C3(C)C` (stereo not drawn), the TGI with A498 renal, in the assay with DLD-1 colon, with HCT-15 colon, in the assay on HOP-62 NSCLC, with HT29 colon and in the assay with RPMI-8226 leukemia was > 100 µM in each case. Further, the TGI with SN12C renal, with SR leukemia and in the assay on UACC-62 melanoma was > 100 µM throughout.
For `CC[C@@]1(O)C(=O)OCc2c1cc1n(c2=O)Cc2cc3cccc([N+](=O)[O-])c3nc2-1`, the GI50 in the assay with A498 renal was 1.43 µM; in the assay with DLD-1 colon, 24.6 µM; with HOP-62 NSCLC it was 0.142 µM; with HT29 colon, 2.18 µM; with RPMI-8226 leukemia, 1.71 µM; in the assay with SN12C renal, 0.382 µM. Also, the GI50 in the assay on UACC-62 melanoma is 0.299 µM. The TGI with A498 renal is 5.03 µM; in the assay with DLD-1 colon it was > 100 µM; in the assay with HOP-62 NSCLC, 0.582 µM; with HT29 colon it was > 100 µM; with RPMI-8226 leukemia, 64.5 µM; in the assay on SN12C renal, 5.01 µM. For the same molecule, the TGI in the assay on UACC-62 melanoma was 1.28 µM.
Turning to `CCOC(=O)NC/C=C/COC1CCCCO1` (stereo not drawn), the TGI with A498 renal, in the assay on DLD-1 colon, in the assay with HCT-15 colon, in the assay on HOP-62 NSCLC, with RPMI-8226 leukemia and with SN12C renal was > 100 µM throughout. For the same molecule, the TGI in the assay on SR leukemia and in the assay with UACC-62 melanoma was > 100 µM each time.
Consider `Cc1cc(C)n(-c2ccnc3cc(Cl)ccc23)n1`, for which the TGI with A498 renal, in the assay on DLD-1 colon, in the assay on HCT-15 colon, with HOP-62 NSCLC, with HT29 colon and in the assay on RPMI-8226 leukemia was > 100 µM throughout. Also, the TGI with SN12C renal, with SR leukemia and in the assay with UACC-62 melanoma was > 100 µM each time.
With `Nc1nc(Cl)cc(NCC(O)CO)n1` (stereo not drawn), the TGI in the assay with A498 renal, in the assay on DLD-1 colon, in the assay with HCT-15 colon, with HOP-62 NSCLC, in the assay with HT29 colon and in the assay with RPMI-8226 leukemia was > 100 µM in each case. Also, the TGI in the assay with SN12C renal, with SR leukemia and with UACC-62 melanoma was > 100 µM throughout.
As for `O=c1c2ccccc2nc(/C=C(\O)c2ccncc2)n1-c1ccc(Cl)cc1`, the TGI with A498 renal, with DLD-1 colon, in the assay with HCT-15 colon, in the assay on HOP-62 NSCLC, in the assay with HT29 colon and with RPMI-8226 leukemia was > 100 µM throughout. Further, the TGI with SN12C renal, in the assay on SR leukemia and in the assay with UACC-62 melanoma was > 100 µM throughout.
For `CCCNCC(=O)O[C@]1(CC)C(=O)OCc2c1cc1n(c2=O)Cc2cc3ccccc3nc2-1`, the TGI is 0.849 µM in the assay with A498 renal; > 100 µM with DLD-1 colon; > 100 µM in the assay with HT29 colon; 0.88 µM with RPMI-8226 leukemia; 0.215 µM in the assay on SN12C renal; 1.12 µM in the assay with UACC-62 melanoma.
As to `CCc1nc(N)nc(N)c1-c1ccc2nnn(O)c2c1`, the TGI in the assay on A498 renal, in the assay with HCT-15 colon, in the assay with HOP-62 NSCLC, in the assay with HT29 colon, in the assay on MDA-N and in the assay with RPMI-8226 leukemia was > 100 µM each time. For the same molecule, the TGI with SN12C renal, in the assay with SR leukemia and with UACC-62 melanoma was > 100 µM each time.
